Target: T1, CDK2 (Homo sapiens, UniProt P24941)
T1 construct: endogenous in cells; host or cells: OVCAR3 cells
Experiment: Phospho-RB measurement in OVCAR3 cells (HTRF phospho-RB cellular kit)
Format: cell-based
Details: inhibition of RB phosphorylation at S807/811 (HTRF, TR-FRET ratio 665/620), 24 h compound treatment, 0.3 to 10,000 nM
Method in brief: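 IC50 came from a four-parameter logistic fit of the DMSO-normalized TR-FRET ratio (665/620 nm). That ratio reflects RB phosphorylation at S807/811, read with an HTRF antibody pair 4 h after adding lysate at room temperature.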

SMILES	IC50 [nM]
C[C@H]1COC[C@H](C)N1c1nc(-c2cccc(NS(=O)(=O)N3CCc4ccc(C(F)(F)F)cc43)c2F)c(-c2ccnc(N[C@H]3CC[C@H](S(C)(=O)=O)CC3)n2)s1 [Example 297, N-(3-(2-((38, 5S)-3,5-dimethyl-morpholino)-5-(2-(((1r,4S)-4-(methyl-sulfonyl)cyclohexyl)amino)pyrimidin-4-yl)thiazol-4-yl)-2~fluorophenyl)-6-(trifluoromethyl) indoline-1-sulfonamide]	103
CS(=O)(=O)[C@H]1CC[C@H](Nc2nccc(-c3sc(N4C5CCC4CC(F)(F)C5)nc3-c3cccc(NS(=O)(=O)N4CCc5ccc(C(F)(F)F)cc54)c3F)n2)CC1 [Example 298, N-(3-(2-(3,3-difluoro-8-azabicyclo-[3.2.1]octan-8-yl)-5-(2-(((1r,4r)-4-(methylsulfonyl)cyclohexyl)amino)-pyrimidin-4-yl)thiazol-4-yl)-2-fluoro-phenyl)-6-(trifluoromethyl)-indoline-1-sulfonamide]	130
CS(=O)(=O)[C@H]1CC[C@H](Nc2nccc(-c3sc(N4C5CCC4CN(CC(F)F)C5)nc3-c3cccc(NS(=O)(=O)N4CCc5ccc(C(F)(F)F)cc54)c3F)n2)CC1 [Example 299, N-(3-(2-(3-(2,2-difluoroethyl)-3,8-diazabicyclo[3.2.1]octan-8-yl)-5-(2-(((1r,4r)-4-(methylsulfonyl)cyclohexyl)-amino)pyrimidin-4-yl)thiazol-4-yl)-2-fluorophenyl)-6-(trifluoromethyl)-indoline-1-sulfonamide]	449

Reference: patent US20260274833A1 (NiKang Therapeutics, Inc., priority 2022, published 2026)
